Values quoted from earlier work as cited in patent publication US20050042712A1, “Methods, compositions and instruments to predict antimicrobial or preservative activity” (ADVANCED MEDICAL OPTICS, INC., priority 2003, published 2005).
Where two headings read alike, the source gives them in different places.

In the case of O=C1OC2(c3ccccc31)c1cc(Br)c(O)c(Br)c1Oc1c2cc(Br)c(O)c1Br.[Na].[Na] [Eosin Y, 2′,4′,5′,7′-Tetrabromo-3′,6′-dihydroxyspiro(isobenzofuran-1(3H),9′-(9H)xanthen)-3-one disodium salt], the pKa (carboxyphenyl group) is given as 2.7, the pKa (phenolate anion) is given as 3.6 and the solubility in water (water) is given as “freely soluble in water”.
